Source: PMC12635268, “Novel antimicrobial peptides and peptide-microbiome crosstalk in Appalachian salamander skin” (NPJ Biofilms and Microbiomes, 2025)
Like-named read-outs stand apart in the source and are kept apart here. Ends that are not written are not given here. Peptide text beside a SMILES is read from it.

Assays:
[1] = parameters: method as in Biomatik (vendor); settings: 1.0 mg peptide in 1.0 ml solvent; peptides synthesized by Biomatik; ref Biomatik (vendor); cited from earlier work
[2] = system: A. baumannii 5075; settings: Week 1 (12/6/2023)
[3] = system: P. aeruginosa PA01 (Si); test: microbe, parasite or virus in culture; format: cell-based
Excerpt: Supplement 41522_2025_837_MOESM13_ESM.xlsx, sheet "Table_S13_ESKAPEE-MIC" | column: Bacterial MIC (µg/mL)

[4] = system: K. pneumoniae 4640
[5] = system: K. pneumoniae ATCC 13883; test: microbe, parasite or virus in culture
Protocol: (§1) Antimicrobial susceptibility testing of the 20 synthesized peptides against 17 bacterial strains of clinical relevance in the ESKAPEE panel was conducted using minimum inhibitory concentration (MIC) assays following the broth microdilution method outlined by Parker et al.[91]. The ESKAPEE panel is comprised of fourteen American Type Culture Collection (ATCC) strains and three Multidrug Resistant Organism Repository and Surveillance Network (MRSN) bacterial strains. These strains represent at least one drug-susceptible strain and one drug-resistant strain for each bacterium to assess drug efficacy across various resistance mechanisms. This panel is comprised of the following bacterial species and strains: E. faecium (ATCC 19434, ATCC 49224), S. aureus (ATCC 25923, ATCC 43300), K. pneumoniae (ATCC 700603, ATCC 13883, MRSN 1320), A. baumannii (ATCC 17978, ATCC 19606, MRSN 959), P. aeruginosa (ATCC 15692, ATCC 27853, MRSN 5519), E. cloacae (ATCC 13047, ATCC 35549), and E. coli (ATCC 35218, ATCC 43888). Bacteria were grown in cation-adjusted Mueller-Hinton broth (CAMHB) to achieve a final inoculum of 1 × 10⁵ CFU/mL. CAMHB is selected for its batch-to-batch reproducibility, low levels of antimicrobial inhibitors, and ability to support the growth of most bacterial pathogens.
(§2) Briefly, lyophilized peptides were dissolved in 0.2% TFA + 0.4% BSA in water to 2.56 mg/mL, ultrasonicated for 20 min, diluted 10-fold into CAMHB, and then serially diluted 2-fold in 0.02% TFA + 0.04% BSA in CAMHB and assayed at a concentration of 0.25 to 128 μg/mL. Assays were set up using the Tecan Freedom EVO liquid handling robot and software (Tecan, Switzerland) with 50 μL of bacterial inoculum and 50 μL of peptide transferred into round-bottom 96-well microtiter plates. Each plate assay was performed in duplicate and incubated at 37 °C for 20 h without agitation. Bacterial growth was assessed using the BIOMIC V3 Image Analysis system (Giles Scientific, USA) and the MIC values were determined visually according to the Clinical and Laboratory Standards Institute (CLSI) guidelines.

[6] = system: E. coli ATCC 43888; test: microbe, parasite or virus in culture
Protocol: as §1, §2

[7] = system: S. aureus ATCC 25923; test: microbe, parasite or virus in culture
Protocol: as §1, §2

[8] = system: K. pneumoniae ATCC 700603; test: microbe, parasite or virus in culture; settings: K. pneumoniae 700603; Week 1 (12/6/2023)
Protocol: as §1, §2

[9] = system: P. aeruginosa MRSN 5519; test: microbe, parasite or virus in culture
Protocol: as §1, §2

[10] = system: A. baumannii ATCC 17978; test: microbe, parasite or virus in culture
Protocol: as §1, §2

[11] = system: E. faecium ATCC 19434; test: microbe, parasite or virus in culture
Protocol: as §1, §2

[12] = system: P. aeruginosa ATCC 27853; test: microbe, parasite or virus in culture
Protocol: as §1, §2

[13] = system: E. faecium ATCC 49224; test: microbe, parasite or virus in culture
Protocol: as §1, §2

[14] = system: S. aureus ATCC 43300; test: microbe, parasite or virus in culture; settings: S. aureus 43300; Week 1 (12/6/2023)
Protocol: as §1, §2

[15] = system: A. baumannii ATCC 19606; test: microbe, parasite or virus in culture
Protocol: as §1, §2

[16] = system: E. cloacae ATCC 35549; test: microbe, parasite or virus in culture
Protocol: as §1, §2

[17] = system: E. coli ATCC 35218; test: microbe, parasite or virus in culture; settings: E. coli 35218; Week 1 (12/6/2023)
Protocol: as §1, §2

[18] = system: E. cloacae ATCC 13047; test: microbe, parasite or virus in culture
Protocol: as §1, §2

[19] = system: Batrachochytrium dendrobatidis Bd-GPL strain JEL404; settings: slope of growth, positive = inhibition, negative = no inhibition
Protocol: Bd-peptide challenge assays were conducted with the crude peptides extracted from the salamander skin secretions and with the 20 synthesized peptides. We followed methods by Pereria et al.[49] to conduct assays with the crude peptides using Bd-GPL strain JEL404 at 1 × 10^6 zoospores/mL. Briefly, skin peptide samples were pooled together based on species-site-injection (Table 1). Skin peptides samples were serially diluted 2-fold in MilliQ (Ultrapure Type 1) water and assayed at a concentration of 2.35–75 μg/mL based on starting peptide concentration available. For synthesized peptides, we conducted assays from 15.6 to 500 μg/ml. In both assays, we quantified percent inhibition of each well using slope of growth[90] in which positive values indicate inhibition and negative values indicate no inhibition.

[20] = P. aeruginosa PA01 (Si), not typical ESKAPEE strain, Week 1 (12/6/2023)
[21] = K. pneumoniae 4640, Week 1 (12/6/2023)
[22] = synthesized peptide 15.625 μg/mL
[23] = synthesized peptide 31.25 μg/mL
[24] = K. pneumoniae 13883, Week 1 (12/6/2023)
[25] = E. coli 43888, Week 1 (12/6/2023)
[26] = S. aureus 25923, Week 1 (12/6/2023)
[27] = P. aeruginosa 5519, Week 1 (12/6/2023)
[28] = A. baumannii 17978, Week 1 (12/6/2023)
[29] = E. faecium 19434, Week 1 (12/6/2023)
[30] = P. aeruginosa 27853, Week 1 (12/6/2023)
[31] = E. faecium 49224, Week 1 (12/6/2023)
[32] = A. baumannii 19606, Week 1 (12/6/2023)
[33] = E. cloacae 35549, Week 1 (12/6/2023)
[34] = E. cloacae 13047, Week 1 (12/6/2023)

Molecule | Suggest solvent (solubility) [1] | Bacterial MIC [2] [µg/mL] | Bacterial MIC ([3]; Si) [µg/mL] | Bacterial MIC ([4]; 4640, 20 h) [µg/mL] | Bacterial MIC ([5]; ATCC 13883, 20 h) [µg/mL] | Bacterial MIC ([6]; ATCC 43888, 20 h) [µg/mL] | Bacterial MIC ([7]; ATCC 25923, 20 h) [µg/mL] | Bacterial MIC [8] [µg/mL] | Bacterial MIC ([9]; MRSN 5519, 20 h) [µg/mL] | Bacterial MIC ([10]; ATCC 17978, 20 h) [µg/mL] | Bacterial MIC ([11]; ATCC 19434, 20 h) [µg/mL] | Bacterial MIC ([12]; ATCC 27853, 20 h) [µg/mL] | Bacterial MIC ([13]; ATCC 49224, 20 h) [µg/mL] | Bacterial MIC [14] [µg/mL] | Bacterial MIC ([15]; ATCC 19606, 20 h) [µg/mL] | Bacterial MIC ([16]; ATCC 35549, 20 h) [µg/mL] | Bacterial MIC [17] [µg/mL] | Bacterial MIC ([18]; ATCC 13047, 20 h) [µg/mL] | Bacterial MIC [3, 20] [µg/mL] | Bacterial MIC [4, 21] [µg/mL] | other results
CC[C@H](C)[C@H](NC(=O)CNC(=O)CNC(=O)[C@@H](NC(=O)[C@H](CS)NC(=O)[C@H](CCCCN)NC(=O)[C@H](CCCCN)NC(=O)CNC(=O)[C@@H](NC(=O)[C@@H]1CCCN1C(=O)[C@@H](N)CCC(N)=O)[C@@H](C)CC)[C@@H](C)O)C(=O)N[C@@H](CC(N)=O)C(=O)N[C@@H](CS)C(=O)N[C@@H](CCCCN)C(=O)N[C@@H](CCCCN)C(=O)NCC(=O)N1CCC[C@H]1C(=O)N1CCC[C@H]1C(=O)N[C@@H](CCCNC(=N)N)C(=O)N[C@@H](CC(C)C)C(=O)N[C@@H](CCCCN)C(=O)N1CCC[C@H]1C(=O)NCC(=O)O [TrPr-Pc6] (H-QPIGKKCTGGINCKKGPPRLKPG-OH; N-terminus and C-terminus assumed) | 1.0mg peptide soluble in 1.0ml H2O | >128.000 | >128.000 | >128.000 | >128.000 | >128.000 | >128.000 | >128.000 | >128.000 | >128.000 | >128.000 | >128.000 | >128.000 | >128.000 | >128.000 | >128.000 | >128.000 | >128.000 |  |  | 
IRRPPGFSPFR [PrAd-Eb8] | 1.0mg peptide soluble in 1.0ml H2O | >128.000 | >128.000 | >128.000 | >128.000 | >128.000 | >128.000 | >128.000 | >128.000 | >128.000 | >128.000 | >128.000 | >128.000 | >128.000 | >128.000 | >128.000 | >128.000 | >128.000 |  |  | 
KGPRPPGFSPFR [PrMb-Eb7] | 1.0mg peptide soluble in 1.0ml H2O | >128.000 |  |  |  |  |  | >128.000 |  |  |  |  |  | >128.000 |  |  | >128.000 |  | >128.000 | >128.000 | Bd inhibition score (percent inhibition), mean [19, 22]: -125.322%; Bd inhibition score (percent inhibition), mean [19, 23]: -116.924%; Bd inhibition score (percent inhibition), mean ([19]; synthesized peptide 62.5 μg/mL): -107.962%; Bd inhibition score (percent inhibition), mean ([19]; synthesized peptide 125 μg/mL): -145.651%; Bd inhibition score (percent inhibition), mean ([19]; synthesized peptide 250 μg/mL): -143.314%; Bd inhibition score (percent inhibition), mean ([19]; synthesized peptide 500 μg/mL): -136.81%; Bacterial MIC [5, 24]: >128.000 µg/mL; Bacterial MIC [6, 25]: >128.000 µg/mL; Bacterial MIC [7, 26]: >128.000 µg/mL; Bacterial MIC [9, 27]: >128.000 µg/mL; Bacterial MIC [10, 28]: >128.000 µg/mL; Bacterial MIC [11, 29]: >128.000 µg/mL; Bacterial MIC [12, 30]: >128.000 µg/mL; Bacterial MIC [13, 31]: >128.000 µg/mL; Bacterial MIC [15, 32]: >128.000 µg/mL; Bacterial MIC [16, 33]: >128.000 µg/mL; Bacterial MIC [18, 34]: >128.000 µg/mL
LHTKRVQNKKKNGNRRQTIGKKCTAGFICKKEYLKLNPGIYSVIHD (cysteines drawn unpaired) [Tr-Eb1] | 1.0mg peptide soluble in 1.0ml DMSO | >128.000 | >128.000 | >128.000 | >128.000 | >128.000 | >128.000 | >128.000 | >128.000 | >128.000 | >128.000 | >128.000 | >128.000 | >128.000 | >128.000 | >128.000 | >128.000 | >128.000 |  |  | 
NRKGPRPPGFSPFR [PrAd-Eb9] | 1.0mg peptide soluble in 1.0ml H2O | >128.000 |  |  |  |  |  | >128.000 |  |  |  |  |  | >128.000 |  |  | >128.000 |  | >128.000 | >128.000 | Bd inhibition score (percent inhibition), mean [19, 22]: -120.796%; Bd inhibition score (percent inhibition), mean [19, 23]: -129.548%; Bd inhibition score (percent inhibition), mean ([19]; synthesized peptide 62.5 μg/mL): -134.776%; Bd inhibition score (percent inhibition), mean ([19]; synthesized peptide 125 μg/mL): -156.474%; Bd inhibition score (percent inhibition), mean ([19]; synthesized peptide 250 μg/mL): -160.396%; Bd inhibition score (percent inhibition), mean ([19]; synthesized peptide 500 μg/mL): -188.605%; Bacterial MIC [5, 24]: >128.000 µg/mL; Bacterial MIC [6, 25]: >128.000 µg/mL; Bacterial MIC [7, 26]: >128.000 µg/mL; Bacterial MIC [9, 27]: >128.000 µg/mL; Bacterial MIC [10, 28]: >128.000 µg/mL; Bacterial MIC [11, 29]: >128.000 µg/mL; Bacterial MIC [12, 30]: >128.000 µg/mL; Bacterial MIC [13, 31]: >128.000 µg/mL; Bacterial MIC [15, 32]: >128.000 µg/mL; Bacterial MIC [16, 33]: >128.000 µg/mL; Bacterial MIC [18, 34]: >128.000 µg/mL
